In PubChem BioAssay AID1259407 (Chemical Carcinogenesis Research Information System (CCRIS), 2018):
The source made the active and inactive calls. No rule for the calls is given here.

Tested on: CCRIS mutagenicity, Ames/micronucleus/aberration tests
Test: CCRIS mutagenicity studies
[1] = Test System: AMES SALMONELLA TYPHIMURIUM, Strain/Indicator: TA98, Metabolic Activation: NONE, Method: PREINCUBATION
[2] = Test System: AMES SALMONELLA TYPHIMURIUM, Strain/Indicator: TA100, Metabolic Activation: NONE, Method: PREINCUBATION

CNc1ccccc1
mutagenic call (Test System: AMES SALMONELLA TYPHIMURIUM, Strain/Indicator: TA97, Metabolic Activation: HAMSTER, LIVER, S-9, AROCLOR 1254 (10%), Method: PREINCUBATION): inactive; negative | mutagenic call (Test System: AMES SALMONELLA TYPHIMURIUM, Strain/Indicator: TA97, Metabolic Activation: HAMSTER, LIVER, S-9, AROCLOR 1254 (30%), Method: PREINCUBATION): inactive; negative | mutagenic call (Test System: AMES SALMONELLA TYPHIMURIUM, Strain/Indicator: TA97, Metabolic Activation: NONE, Method: PREINCUBATION): inactive; negative | mutagenic call (Test System: AMES SALMONELLA TYPHIMURIUM, Strain/Indicator: TA97, Metabolic Activation: RAT, LIVER, S-9, AROCLOR 1254 (10%), Method: PREINCUBATION): inactive; negative | mutagenic call (Test System: AMES SALMONELLA TYPHIMURIUM, Strain/Indicator: TA97, Metabolic Activation: RAT, LIVER, S-9, AROCLOR 1254 (30%), Method: PREINCUBATION): inactive; negative | mutagenic call (Test System: AMES SALMONELLA TYPHIMURIUM, Strain/Indicator: TA98, Metabolic Activation: HAMSTER, LIVER, S-9, AROCLOR 1254 (10%), Method: PREINCUBATION): inactive; negative | mutagenic call (Test System: AMES SALMONELLA TYPHIMURIUM, Strain/Indicator: TA98, Metabolic Activation: HAMSTER, LIVER, S-9, AROCLOR 1254 (30%), Method: PREINCUBATION): inactive; negative | mutagenic call (Test System: AMES SALMONELLA TYPHIMURIUM, Strain/Indicator: TA98, Metabolic Activation: HAMSTER, LIVER, S-9, SODIUM PHENOBARBITAL AND 5,6-BENZOFLAVONE, Method: PREINCUBATION): inactive; negative | mutagenic call [1]: inactive; negative | mutagenic call (Test System: AMES SALMONELLA TYPHIMURIUM, Strain/Indicator: TA98, Metabolic Activation: RAT, LIVER, S-9, AROCLOR 1254 (10 OR 30%), Method: PREINCUBATION): inactive; negative | mutagenic call (Test System: AMES SALMONELLA TYPHIMURIUM, Strain/Indicator: TA100, Metabolic Activation: HAMSTER, LIVER, S-9, AROCLOR 1254 (10%), Method: PREINCUBATION): inactive; negative | mutagenic call (Test System: AMES SALMONELLA TYPHIMURIUM, Strain/Indicator: TA100, Metabolic Activation: HAMSTER, LIVER, S-9, AROCLOR 1254 (30%), Method: PREINCUBATION): inactive; negative | mutagenic call (Test System: AMES SALMONELLA TYPHIMURIUM, Strain/Indicator: TA100, Metabolic Activation: HAMSTER, LIVER, S-9, SODIUM PHENOBARBITAL AND 5,6-BENZOFLAVONE, Method: PREINCUBATION): inactive; negative | mutagenic call [2]: inactive; negative | mutagenic call (Test System: AMES SALMONELLA TYPHIMURIUM, Strain/Indicator: TA100, Metabolic Activation: RAT, LIVER, S-9, AROCLOR 1254 (10 OR 30%), Method: PREINCUBATION): inactive; negative | mutagenic call (Test System: AMES SALMONELLA TYPHIMURIUM, Strain/Indicator: TA102, Metabolic Activation: HAMSTER, LIVER, S-9, SODIUM PHENOBARBITAL AND 5,6-BENZOFLAVONE, Method: PREINCUBATION): inactive; negative | mutagenic call (Test System: AMES SALMONELLA TYPHIMURIUM, Strain/Indicator: TA102, Metabolic Activation: NONE, Method: PREINCUBATION): inactive; negative | mutagenic call (Test System: AMES SALMONELLA TYPHIMURIUM, Strain/Indicator: TA104, Metabolic Activation: HAMSTER, LIVER, S-9, SODIUM PHENOBARBITAL AND 5,6-BENZOFLAVONE, Method: PREINCUBATION): inactive; negative | mutagenic call (Test System: AMES SALMONELLA TYPHIMURIUM, Strain/Indicator: TA104, Metabolic Activation: NONE, Method: PREINCUBATION): inactive; negative | mutagenic call (Test System: AMES SALMONELLA TYPHIMURIUM, Strain/Indicator: TA1535, Metabolic Activation: HAMSTER, LIVER, S-9, AROCLOR 1254 (10%), Method: PREINCUBATION): inactive; negative | mutagenic call (Test System: AMES SALMONELLA TYPHIMURIUM, Strain/Indicator: TA1535, Metabolic Activation: HAMSTER, LIVER, S-9, AROCLOR 1254 (30%), Method: PREINCUBATION): inactive; negative | mutagenic call (Test System: AMES SALMONELLA TYPHIMURIUM, Strain/Indicator: TA1535, Metabolic Activation: HAMSTER, LIVER, S-9, SODIUM PHENOBARBITAL AND 5,6-BENZOFLAVONE, Method: PREINCUBATION): inactive; negative | mutagenic call (Test System: AMES SALMONELLA TYPHIMURIUM, Strain/Indicator: TA1535, Metabolic Activation: NONE, Method: PREINCUBATION): inactive; negative | mutagenic call (Test System: AMES SALMONELLA TYPHIMURIUM, Strain/Indicator: TA1535, Metabolic Activation: RAT, LIVER, S-9, AROCLOR 1254 (10 OR 30%), Method: PREINCUBATION): inactive; negative | mutagenic call (Test System: AMES SALMONELLA TYPHIMURIUM, Strain/Indicator: TA1537, Metabolic Activation: HAMSTER, LIVER, S-9, SODIUM PHENOBARBITAL AND 5,6-BENZOFLAVONE, Method: PREINCUBATION): inactive; negative | mutagenic call (Test System: AMES SALMONELLA TYPHIMURIUM, Strain/Indicator: TA1537, Metabolic Activation: NONE, Method: PREINCUBATION): inactive; negative | mutagenic call (Test System: E. COLI, Strain/Indicator: WP2UVRA/PKM101, Metabolic Activation: HAMSTER, LIVER, S-9, SODIUM PHENOBARBITAL AND 5,6-BENZOFLAVONE, Method: PREINCUBATION): inactive; negative | mutagenic call (Test System: E. COLI, Strain/Indicator: WP2UVRA/PKM101, Metabolic Activation: NONE, Method: PREINCUBATION): inactive; negative | mutagenic call (Test System: E. COLI, Strain/Indicator: WP2UVRA, Metabolic Activation: HAMSTER, LIVER, S-9, SODIUM PHENOBARBITAL AND 5,6-BENZOFLAVONE, Method: PREINCUBATION): inactive; negative | mutagenic call (Test System: E. COLI, Strain/Indicator: WP2UVRA, Metabolic Activation: NONE, Method: PREINCUBATION): inactive; negative | mutagenic call (Test System: UDS RODENT HEPATOCYTES, Strain/Indicator: THY INCORP (NON-S-PHASE), Metabolic Activation: NONE, Method: AUTORADIOGRAPHY): inactive; negative

OC[C@H](O)CCl
mutagenic call [1]: inactive; negative | mutagenic call (Test System: AMES SALMONELLA TYPHIMURIUM, Strain/Indicator: TA98, Metabolic Activation: RAT, LIVER, S-9, KANECHLOR 500, Method: PREINCUBATION): inactive; negative | mutagenic call [2]: active; positive | mutagenic call (Test System: AMES SALMONELLA TYPHIMURIUM, Strain/Indicator: TA100, Metabolic Activation: RAT, LIVER, S-9, KANECHLOR 500, Method: PREINCUBATION): inactive; negative | mutagenic call (Test System: AMES SALMONELLA TYPHIMURIUM, Strain/Indicator: TA100, Metabolic Activation: RAT, LIVER, S-9, PCB, Method: PREINCUBATION): active; positive

O=S(Cl)Cl
mutagenic call (Test System: AMES SALMONELLA TYPHIMURIUM, Strain/Indicator: TA100, Metabolic Activation: HAMSTER, LIVER, S-9, AROCLOR 1254 (2.5-20%), Method: PREINCUBATION): active; positive | mutagenic call (Test System: AMES SALMONELLA TYPHIMURIUM, Strain/Indicator: TA102, Metabolic Activation: HAMSTER, LIVER, S-9, AROCLOR 1254, Method: PREINCUBATION): active; positive | mutagenic call (Test System: AMES SALMONELLA TYPHIMURIUM, Strain/Indicator: TA102, Metabolic Activation: RAT, LIVER, S-9, AROCLOR 1254, Method: PREINCUBATION): active; positive | mutagenic call (Test System: Mouse lymphoma, Strain/Indicator: L5178Y (tk+/tk-), Metabolic Activation: None, Method: Suspension/plate): active; equivocal (previous evaluation positive) | mutagenic call (Test System: Mouse lymphoma, Strain/Indicator: L5178Y (tk+/tk-), Metabolic Activation: Rat, Liver, S-9, Aroclor 1254, Method: Suspension/plate): inactive; inconclusive (previous evaluation negative)
